Data on 13 compounds can be found in article PMC8512853, “Synthesis, Bioactivity, Pharmacokinetic and Biomimetic Properties of Multi-Substituted Coumarin Derivatives” (Molecules, 2021).

Each structure is given as a SMILES string.

Data set [1] is described as follows: Inhibition of AAPH induced linoleic acid oxidation (lipid peroxidation). The text has this: AAPH induced linoleic acid oxidation has been developed as a quick and reliable antioxidant activity assay. It is based on the inhibition of linoleic acid oxidation, initiated by the thermal free radical producer 2,2′-azobis(2-amidinopropane) dihydrochloride (AAPH), providing a measure of how efficiently antioxidants protect against lipid oxidation in vitro. Oxidation of exogenous linoleic acid by AAPH is followed by UV spectrophotometry at 234 nm in a highly diluted sample [38].
For the reference sample in a UV cuvette, 10 μL of the test sample (100 μM diluted in DMSO), 10 μL linoleic acid (LA) (16 mM), and buffer solution (pH 7.4) were added to a final volume of 1ml. For the measurement sample, in a UV cuvette, 10 μL of test sample, 50 μL AAPH (40 mM), 10 μL LA, and buffer solution were added to a final volume of 1 mL. Standard and blank samples were prepared in the same way using DMSO (solvent) instead of the tested coumarin analogues. The absorbance was measured after 2 min at 37 °C at 234 nm. Results were obtained via the following Equation (5):(5) %Inhibition=(Standard−Blank)−(Reference Sample−Measurement Sample)/(Standard−Blank) × 100

Data set [2] in a line: IAM chromatography (IAM.PC.DD.2 column) and estimated human oral absorption. Particulars: for %HOA estimated human oral absorption: Equation (1) from logkw and physicochemical properties; for logkw (IAM retention factor): pH 7.40, IAM.PC.DD.2, intercept at pure aqueous phase. The format is in vitro ADME. The procedure:
The immobilized artificial membrane (IAM) chromatographic behavior of the 25 novel coumarin derivatives was studied. IAM stationary phases consisting of monolayers of phospholipids (e.g., phosphatidylcholine, PC) immobilized on a propylamine–silica support can simulate interactions of chemicals with cell membranes.
Using an IAM.PC.DD2 column (Regis Technologies) as the stationary phase with PBS as the mobile phase at pH = 7.40, and a flow rate of 3 mL/min in the presence of acetonitrile fractions (C%) of 10%, 15%, 20%, 25%, and 30%, a logkC% value was obtained via the retention time for each concentration of CH3CN. Retention factors were then used to plot logkC% as a function of acetonitrile fraction. The intercept of the linear regression corresponds to the logkw, corresponding to pure aqueous phase.
(1) % HOA=100/1+10^−(2.17+0.88*logkw−0.006*MW−0.83*A−0.53*F^*++1.18*F^*−)
The physicochemical and biomimetic properties of the new coumarin analogues were studied using liquid chromatography (HPLC) in 220–230 nm Two types of chromatographic columns were used: (i) immobilized artificial membrane (IAM) ([…].PC.DD.2, Regis Technologies) column and (ii) human serum albumin (HSA) (CHIRAL PAK) column.
The training set consisted of 25 neutral and slightly acidic compounds. Their IAM retention factors were measured at pH 7.40 on a IAM.PC.DD.2 column. The mobile phase consisted of acetonitrile solvent (CH3CN) in various concentrations (10%, 15%, 20%, 25%, 30%) and a flow rate of 3 mL/min was selected. Their HSA retention factors were measured at pH 7.00 on HSA column. The mobile phase consisted of acetonitrile solvent (CH3CN) in 10% concentration and a flow rate of 1 mL/min was selected.
The different pH values (7.00 for HSA and 7.40 for IAM) were measured with an electronic pH meter MP125 and were achieved by preparing suitable buffers of phosphates and chlorides (0.12 g KH2PO4, 0.72 g Na2HPO4·2H2O, 4.00 g NaCl and 0.10 g KCl). Sodium citrate solution was used to determine the dead time, which was deducted from the results at the end of measurements. The elution time of each coumarin analogue was measured at least three times. Retention times were converted into logk values, which represent the logarithm of the retention indexes, using Equation (8). (8) logk=log(tr−t0/t0) where tr is the retention time of the coumarin derivative and t0 is the dead time.

Data set [3] is described as follows: Hydroxyl (HO•) free radical scavenging assay (competition with DMSO). The text has this: The hydroxyl (HO^•) free radical is considered as the most toxic and reactive radical among the ROS, leading to cellular or protein damage, membrane destruction, and even to cellular death when encountered in excess concentration. In this context, the evaluation of the hydroxyl radical scavenging activity of the coumarin analogues was essential. Hydroxyl radicals are mainly produced by the Haber–Weiss reaction in the presence of iron or copper ions. In this protocol, iron-EDTA solution, which catalyzes the autooxidation of ascorbic acid, was used as the hydroxyl radical generation system. In general, the hydroxyl radicals formed oxidize the DMSO to form formaldehyde. The reaction involves the initial interaction of DMSO with the hydroxyl radicals to give methyl radicals, with the final product being formaldehyde, which is determined by Nash method. The intensity of the yellow solution formed was measured at 412 nm against a reagent blank.
For the evaluation of hydroxyl radical scavenging ability, the protocol described by Kontogiorgis et al. was used. In short, each sample was tested in quadruplicate (A, B, C, D). For A and B, 10 μL of coumarin analogs diluted in DMSO (100 mM) were added; for C and D were the respective blanks. Standards (containing DMSO solution) and blanks were all prepared in a similar manner; to the latter an equal amount (10 µL) of solvent was added instead of the tested analogues. According to the protocol described by Klein et al., standard solutions of EDTA, FeCl3, ascorbic acid, and buffer solution (pH 7.4) were also added to each of the tested mixtures. All mixtures were incubated at 37 °C for 30 min, and then 1 mL of Nash solution and […] of CCl3COOH solution were added. After a 10min incubation at 60 °C to allow the formation of the yellow mixture, the absorbance was measured at […].
The results were calculated as performance percentages in relation to the respective standards and blanks according to the following Equation (4):(4) % Scavenging ability= Mean OD(A+B)−Mean OD(C+D)/Mean OD(A+B)

For another data set, the system named is A549 cells. Briefly: MTT cytotoxicity assay, A549. Particulars: 24 h; for cytotoxicity at 100 µM: Homo sapiens, A549, 100 μΜ, read-out: Cell Toxicity A549 % (100 μΜ). The format is cell-based, human. The procedure:
Furthermore, the coumarin compounds synthesized in this study were also evaluated for their cytotoxicity against A549 (adenocarcinomic human alveolar basal epithelial cells) and A375 (human melanoma) cell lines.
This protocol was used for the evaluation of cell viability and all the cell lines. It must be noted that this assay describes the count of cells that remain alive after the treatment. For the experimental procedure a standard solution of MTT 1mg/mL in PBS was prepared which after filtration ([…] filter (Millipore, Carrigtwohill, Ireland)) was stored in the dark (4–8 °C) until use. In a 96-well plate, HaCaT, A549 and A375 cells were seeded in a number of 30 × 10^4 cells/well for each evaluation series respectively. The cells were incubated (37 °C, 5% CO2) for 24 h, followed by the addition of the tested analogues (100 μM, diluted in DMEM) and another 24-h incubation. Next, appropriate amount of MTT was added in the tested wells and the plate returned to the incubator for the next 4 h for the formation of the formazan crystals. The formazan crystals were then redissolved by adding DMSO (100 μL) and stirring lightly for 40 min, after which the absorbance was measured in a plate reader at 540 nm with a reference absorbance of 720 nm.
All samples were tested in triplicate, against a control (only cells), blank (no cells), and positive control (100 μM standard silibinin solution was used as a “cell-killing” standard).

For `CC(=O)Oc1ccc(-c2c(C)c3cc(Br)ccc3oc2=O)cc1OC(C)=O` [Compound 3m, 3-(4,5-diacetyloxyphenyl)-6-bromo-4-methyl-chromen-2-one], the IC50 (commonly the concentration needed to halve the response being measured) in data set [1] came out at 37.1 µM. In data set [2], the “%HOA estimated human oral absorption” value is reported as 99.6% and the “logkw (IAM retention factor)” value was 3.21. The “HO^• % (100 μΜ) scavenging” value in data set [3] is recorded as 46.7%. Also, the “Cell Toxicity A549 % (100 μΜ)” value with A549 cells was “no”.

Consider `Cc1c(-c2ccc(O)cc2)c(=O)oc2ccc(Cl)cc12` [Compound 4j, 6-chloro-3-(4-hydroxyphenyl)-4-methyl-chromen-2-one], for which, in data set [1], the “AAPH % inhibition (100 μΜ)” value was found to be 36.1%. Besides, in data set [2], the “%HOA estimated human oral absorption” value is given as 99.5% and the “logkw (IAM retention factor)” value is listed as 3.41. Besides, the “HO^• % (100 μΜ) scavenging” value in data set [3] stood at 100%. Further, the cytotoxicity at 100 µM in the data set on A549 cells amounted to 33.5%.

For `CC(=O)Oc1ccc(-c2c(C)c3cc(Cl)ccc3oc2=O)cc1` [Compound 3j, 3-(4-acetyloxyphenyl)-6-chloro-4-methyl-chromen-2-one], in data set [1], the “AAPH % inhibition (100 μΜ)” value is given as “no”. Further, in data set [2], the “%HOA estimated human oral absorption” value is reported as 99.9% and the “logkw (IAM retention factor)” value was 3.06. In data set [3], the “HO^• % (100 μΜ) scavenging” value is recorded as 26.6%. In addition, the “Cell Toxicity A549 % (100 μΜ)” value in the data set on A549 cells is on record as “no”.

In data set [1], `Cc1c(-c2ccc(O)cc2)c(=O)oc2ccc(Br)cc12` [Compound 4i, 6-bromo-3-(4-hydroxyphenyl)-4-methyl-chromen-2-one] had an IC50 of 70.7 µM. Also, in data set [2], the “%HOA estimated human oral absorption” value is reported as 99.9% and the “logkw (IAM retention factor)” value is 3.23. Also, the “HO^• % (100 μΜ) scavenging” value in data set [3] is 100%. The cytotoxicity at 100 µM in the data set with A549 cells stood at 21.7%.

The compound `CC(=O)Oc1ccc(-c2c(C)c3cc(Br)ccc3oc2=O)cc1` [Compound 3i, 3-(4-acetyloxyphenyl)-6-bromo-4-methyl-chromen-2-one] gave an IC50 in data set [1] of 70.7 µM. For the same compound, in data set [2], the “%HOA estimated human oral absorption” value is on record as 99.8% and the “logkw (IAM retention factor)” value is 3.28. The “HO^• % (100 μΜ) scavenging” value in data set [3] was 64.5%. Also, the “Cell Toxicity A549 % (100 μΜ)” value in the data set on A549 cells was “no”.

On to `CC(=O)Oc1cccc2oc(=O)c(-c3ccc(F)cc3)c(C)c12` [Compound 3f, 5-acetyloxy-3-(4-fluorophenyl)-4-methyl-chromen-2-one], for which, in data set [2], the “%HOA estimated human oral absorption” value is on record as 99.7% and the “logkw (IAM retention factor)” value is 2.52. For the same compound, the “HO^• % (100 μΜ) scavenging” value in data set [3] was 71.6%. In the data set on A549 cells, the “Cell Toxicity A549 % (100 μΜ)” value is reported as “no”.

In data set [1], `Cc1c(-c2ccc(F)cc2)c(=O)oc2cccc(O)c12` [Compound 4f, 3-(4-fluorophenyl)-5-hydroxy-4-methyl-chromen-2-one] registered an IC50 of 86.8 µM. Moreover, in data set [2], the “%HOA estimated human oral absorption” value is reported as 99.7% and the “logkw (IAM retention factor)” value was 2.62. In data set [3], the “HO^• % (100 μΜ) scavenging” value is reported as 99.4%. Moreover, the cytotoxicity at 100 µM with A549 cells was 62.5%.

As to `Cc1c(-c2ccccc2Cl)c(=O)oc2cccc(O)c12` [Compound 4a, 3-(2-chlorophenyl)-5-hydroxy-4-methyl-chromen-2-one], the “AAPH % inhibition (100 μΜ)” value in data set [1] was “no”. In addition, in data set [2], the “%HOA estimated human oral absorption” value was 100% and the “logkw (IAM retention factor)” value is 4.09. In data set [3], the “HO^• % (100 μΜ) scavenging” value stood at 37.3%. In the data set on A549 cells, the cytotoxicity at 100 µM was 64.7%.

Take `CC(=O)Oc1ccc(-c2c(C)c3ccccc3oc2=O)cc1OC(C)=O` [Compound 3l, 3-(4,5-diacetyloxyphenyl)-4-methyl-chromen-2-one]: in data set [1], the IC50 is 85.5 µM. Also, in data set [2], the “%HOA estimated human oral absorption” value is on record as 99.4% and the “logkw (IAM retention factor)” value was 2.43. Further, the “HO^• % (100 μΜ) scavenging” value in data set [3] amounted to 10.7%. Also, the “Cell Toxicity A549 % (100 μΜ)” value with A549 cells was “no”.

`CC(=O)Oc1ccc(-c2c(C)c3cc(Cl)ccc3oc2=O)cc1OC(C)=O` [Compound 3n, 3-(4,5-diacetyloxyphenyl)-6-chloro-4-methyl-chromen-2-one] gave an IC50 in data set [1] of 84.3 µM. Besides, in data set [2], the “%HOA estimated human oral absorption” value was 99.7% and the “logkw (IAM retention factor)” value is 3.04. In data set [3], the “HO^• % (100 μΜ) scavenging” value was 65.7%. For the same compound, the “Cell Toxicity A549 % (100 μΜ)” value with A549 cells is “no”.

As for `CC(=O)Oc1ccc(-c2c(C)c3cc(Br)cc(Br)c3oc2=O)cc1OC(C)=O` [Compound 3o, 3-(4,5-diacetyloxyphenyl)-6,8-dibromo-4-methyl-chromen-2-one], the IC50 in data set [1] worked out at 77.2 µM. In data set [2], the “%HOA estimated human oral absorption” value was 99.6% and the “logkw (IAM retention factor)” value is listed as 3.79. For the same compound, the “HO^• % (100 μΜ) scavenging” value in data set [3] is recorded as 52.1%. Also, the “Cell Toxicity A549 % (100 μΜ)” value in the data set on A549 cells is recorded as “no”.

On to `CC(=O)Oc1cccc2oc(=O)c(-c3ccccc3F)c(C)c12` [Compound 3d, 5-acetyloxy-3-(2-fluorophenyl)-4-methyl-chromen-2-one], for which, in data set [2], the “%HOA estimated human oral absorption” value is 99.7% and the “logkw (IAM retention factor)” value is 2.56. Also, the “HO^• % (100 μΜ) scavenging” value in data set [3] is recorded as 100%. Besides, in the data set on A549 cells, the cytotoxicity at 100 µM is 7.5%.

The compound `Cc1c(-c2ccc(O)cc2)c(=O)oc2c(Br)cc(Br)cc12` [Compound 4k, 6,8-dibromo-3-(4-hydroxyphenyl)-4-methyl-chromen-2-one] gave a 50% inhibitory concentration (IC50) in data set [1] of 36.9 µM. In addition, in data set [3], the “HO^• % (100 μΜ) scavenging” value was found to be 100%. In addition, the cytotoxicity at 100 µM in the data set with A549 cells was 66.5%.
